What was measured:
Assay type in all cases: in vivo
[1] = system: irritable bladder in female apes; test: Animal model for irritable bladder induced by direct infusion of acetone into the bladder (Ghoniem et al.); conditions: doses of 3, 10 and 30 mg/kg
Experimental: The classical animal model for irritable bladder is described in Ghoniem et al., Neurourol. Urodyn. 1995; 14: 657-65. In female apes, irritable bladder is induced by direct infusion of acetone into the bladder. The animals are kept in metabolism cages designed for continuous monitoring of miction (urination) of the animals. The frequency, emptying volumes and flow rate of the urine are measured continuously via urine flow meters. […] Furthermore, considerable changes in bladder physiology are observed in the first week after acetone infusion: the bladder performance, measured in ml/cm, drops by almost 95%. The emptying behaviour also changes considerably, with the frequency of emptying increasing greatly with the picture of frequent dribbling and at the same time with an emptying volume reduced by about 70%. […] These changes in behaviour observed in apes are consistent with the clinical picture of considerable discomfort and pain.

[2] = Urine excretion in rats with increased urine excretion provoked by intraperitoneal saline (Lipschitz model); conditions: rats fasted overnight, 100 ml/kg physiological saline i.p., urine collected over 6 hours, dose 100 mg/kg; increase as a function of dose
Experimental: (§1) A model for measuring the effect on urine excretion is described in Lipschitz et al., J. Pharmacol. Exp. Ther. 1943; 79: 97-110. The substance to be investigated is given to rats who had previously been denied food overnight while being given free access to water. Increased urine excretion is provoked by simultaneous intraperitoneal injection of 100 ml/kg of physiological saline solution. Immediately after administration of the substance, the bladder was emptied by gentle massage of the abdomen above the bladder. The rats are subsequently kept in metabolism cages in which the urine is collected over a period of 6 hours.

[3] = Urine excretion in normal rats (without induction of increased urine excretion); conditions: no saline induction, dose 30 mg/kg po, increase as a function of dose
Experimental: as §1
The effect on urine excretion in normal rats is tested analogously (i.e. without induction of increased urine excretion, see above). N-Methyl-N-[(1S)-1-phenyl-2-((3S)-3-hydroxypyrrolidin-1-yl)ethyl]-2,2-diphenylacetamide increases urine excretion as a function of dose, with 5.5 times the amount of urine being excreted at only 30 mg/kg po.

Structure (SMILES): CN(C(=O)C(c1ccccc1)c1ccccc1)[C@H](CN1CC[C@H](O)C1)c1ccccc1 [N-methyl-N-[(1S)-1-phenyl-2-((3S)-3-hydroxypyrrolidin-1-yl)ethyl]-2,2-diphenylacetamide]
- effect on bladder function [1]: normalises bladder function in a dose-dependent manner
- amount of urine excreted (multiple) [2]: twice the amount of urine
- amount of urine excreted (multiple) [3]: 5.5 times

Source: patent US20040157913A1, “Kappa opiate agonists for the treatment of bladder diseases” (priority 2001, published 2004)
